Measured values as given in patent publication US9701670B2, “Pyrazolyl-ureas as kinase inhibitors” (RESPIVERT LIMITED, priority 2013, dated 2017).

Assays:
[1] = system: β-catenin in d-U937 cells; assay: (m) Accumulation of β catenin in d-U937 cells; assay type: cell-based, human
Protocol: U937 cells, a human monocytic cell line, are differentiated into macrophage-type cells by incubation with PMA; (100 ng/mL) for between 48 to 72 hr. The cells are then incubated with either final concentrations of test compound or vehicle for 18 hr. The induction of β-catenin by the test compounds is stopped by replacing the media with 4% formaldehyde solution. Endogenous peroxide activity is neutralised by incubating with quenching buffer (100 μL, 0.1% sodium azide, 1% H2O2 in PBS with 0.05% Tween-20) for 20 min. The cells are washed with washing buffer (200 μL; PBS containing 0.05% Tween-20) and incubated with blocking solution (200 μL; 5% milk in PBS) for 1 hr, re-washed with washing buffer (200 μL) and then incubated overnight with anti-β-catenin antibody solution (50 μL) in 1% BSA/PBS (BD, Oxford, UK).
After washing with washing buffer (3×200 μL; PBS containing 0.05% Tween-20), cells are incubated with an HRP-conjugated secondary antibody solution (100 μL) in 1% BSA/PBS (Dako, Cambridge, UK) and the resultant signal is determined colourimetrically (OD: 450 nm with a reference wavelength of 655 nm) using TMB substrate (50 μL; R&D Systems, Abingdon, UK). This reaction is stopped by addition of 1N H2SO4 solution (50 μL). Cells are then washed with washing buffer and 2% crystal violet solution (50 μL) is applied for 30 min. After washing with washing buffer (3×200 μL), 1% SDS (100 μL) is added to each well and the plates are shaken lightly for 1 hr prior to measuring the absorbance at 595 nm (Varioskan® Flash, Thermo-Fisher Scientific).
The measured OD450-655 readings are corrected for cell number by dividing the OD450-655 by the OD595 readings. […] A signal less than 0.15 (15%) of that observed for the standard control is designated as “-ve”.

[2] = molecular target: T1, p38 MAPKα isoform (MAPK14) (Homo sapiens (Human), UniProt Q16539); assay: p38 MAPKα enzyme inhibition (FRET, Z-LYTE), Method 2; assay type: biochemical; conditions: Method 2, different laboratory (Table 4a2)
T1 sequence (Q16539 whole entry, canonical isoform): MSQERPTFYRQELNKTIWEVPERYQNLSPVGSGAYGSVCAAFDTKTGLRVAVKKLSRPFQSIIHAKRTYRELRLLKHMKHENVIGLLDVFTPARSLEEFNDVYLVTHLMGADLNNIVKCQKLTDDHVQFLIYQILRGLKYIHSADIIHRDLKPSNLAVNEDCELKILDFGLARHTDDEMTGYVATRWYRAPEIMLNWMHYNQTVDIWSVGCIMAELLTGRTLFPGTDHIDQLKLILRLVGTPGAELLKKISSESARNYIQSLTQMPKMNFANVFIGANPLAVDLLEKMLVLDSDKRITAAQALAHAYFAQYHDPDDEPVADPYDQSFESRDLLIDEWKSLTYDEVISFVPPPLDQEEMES
Protocol: The enzyme inhibitory activities of compounds disclosed herein are determined by FRET using synthetic peptides labelled with both donor and acceptor fluorophores (Z-LYTE, Invitrogen Ltd., Paisley, UK).
The inhibitory activities of test compounds against the p38 MAPKα isoform (MAPK14: Invitrogen), are evaluated indirectly by determining the level of activation/phosphorylation of the down-stream molecule, MAPKAP-K2. The p38 MAPKα protein (80 ng/mL, 2.5 μL) is mixed with the test compound (2.5 μL of either 4 μg/mL, 0.4 μg/mL, 0.04 μg/mL or 0.004 μg/mL) for 2 hr at RT. […] The mixture is incubated for 1 hr at RT. Development reagent (protease, 5 μL) is added for 1 hr prior to detection in a fluorescence microplate reader (Varioskan® Flash, ThermoFisher Scientific).
In all cases, the site-specific protease cleaves non-phosphorylated peptide only and eliminates the FRET signal. Phosphorylation levels of each reaction are calculated using the ratio of coumarin emission (donor) over fluorescein emission (acceptor), for which high ratios indicate high phosphorylation and low ratios indicate low phosphorylation levels.

[3] = molecular target: T1, p38 MAPKα isoform (MAPK14); assay: p38 MAPKα enzyme inhibition (FRET, Z-LYTE), Method 1; assay type: biochemical; conditions: Method 1 (Table 4a1)
[4] = system: Differentiated U937 cells; assay: (l) Cell viability: MTT assay; assay type: cell-based, human; conditions: 1 μg/mL
Outline: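 Differentiated U937 cells were exposed to compound at 1 or 10 μg/mL either 4 h in 5% FCS RPMI1640 or 24 h in 10% FCS RPMI1640, then given MTT for 1 h, DMSO-solubilised and read at 550 nm. Percent viability loss versus 0.5% DMSO vehicle; apparent gains appear negative.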

Balb/c mice = assay: (A) LPS-induced neutrophil accumulation in mice; assay type: in vivo, mouse; conditions: 1.75 μg/mouse
Protocol: […] At T=0, mice are placed into an exposure chamber and exposed to LPS (7.0 mL, 0.5 mg/mL solution in PBS) for 30 min). After a further 8 hr the animals are anesthetized, their tracheas cannulated and BALF extracted by infusing and then withdrawing from their lungs 1.0 mL of PBS via the tracheal catheter. Total and differential white cell counts in the BALF samples are measured using a Neubaur haemocytometer. Cytospin smears of the BALF samples are prepared by centrifugation at 200 rpm for 5 min at RT and stained using a DiffQuik stain system (Dade Behring). Cells are counted using oil immersion microscopy. Data for neutrophil numbers in BAL are shown as mean±S.E.M. (standard error of the mean). The percentage inhibition of neutrophil accumulation is calculated for each treatment relative to vehicle treatment.

mice = assay: Mouse cigarette smoke model (macrophage and neutrophil accumulation in BALF); assay type: in vivo; conditions: cigarette smoke model, 1.75 μg/mouse (35 μL, bid, i.n.)
Description: The result of treatment with compound Example (8) on macrophage and neutrophil accumulation in BALF in the mouse cigarette smoke model was investigated (Table 5).

| Compound | IC50 [3] [nM] | Cell viability at time point in d-U937 cells 4 h [4] | Cell viability at time point in d-U937 cells 24 h [4] | also measured |
| --- | --- | --- | --- | --- |
| C#Cc1cc(Nc2nccc(Oc3ccc(NC(=O)Nc4cc(C(C)(C)C#N)nn4-c4ccc(C)cc4)c4ccccc34)n2)cc(C(=O)NCCN2CCOCC2)c1 [Example 78, 3-((4-((4-(3-(3-(2-Cyanopropan-2-yl)-1-(p-tolyl)-1H-pyrazol-5-yl)ureido)-naphthalen-1-yl)oxy)pyrimidin-2-yl)amino)-5-ethynyl-N-(2-morpholinoethyl)benzamide] | – | – | – | % β-catenin induction ([1]; 1 μg/mL test compound): 9%; % β-catenin induction ([1]; 5 μg/mL test compound): 0% |
| C#Cc1cc(Nc2nccc(Oc3ccc(NC(=O)Nc4cc(C(C)C)nn4-c4ccc(C)cc4)c(Cl)c3Cl)n2)cc(C(=O)NCCN2CCOCC2)c1 [Example 87, 3-((4-(2,3-Dichloro-4-(3-(3-isopropyl-1-(p-tolyl)-1H-pyrazol-5-yl)ureido)-phenoxy)pyrimidin-2-yl)amino)-5-ethynyl-N-(2-morpholinoethyl)benzamide] | – | – | – | IC50 [2]: 408 nM |
| C#Cc1cc(Nc2nccc(Oc3ccc(NC(=O)Nc4cc(C(C)(C)C)nn4-c4ccc(C)cc4)c4ccccc34)n2)cc(C(=O)NC(C)(C)CN2CCOCC2)c1 [Example 82, 3-((4-((4-(3-(3-(tert-Butyl)-1-(p-tolyl)-1H-pyrazol-5-yl)ureido)naphthalen-1-yl)oxy)pyrimidin-2-yl)amino)-5-ethynyl-N-(2-methyl-1-morpholinopropan-2-yl)-benzamide] | – | – | – | % β-catenin induction ([1]; 1 μg/mL test compound): 0%; % β-catenin induction ([1]; 5 μg/mL test compound): 9% |
| CCC(=O)O[C@]1(C(=O)SCF)[C@H](C)C[C@H]2[C@@H]3C[C@H](F)C4=CC(=O)C=C[C@]4(C)[C@@]3(F)[C@@H](O)C[C@@]21C [fluticasone propionate, reference compound] | – | – | – | inhibition of LPS-induced neutrophil accumulation (Balb/c mice): > 80%; inhibition of neutrophil or macrophage accumulation into airways (mice): did not inhibit |
| COc1ccc(-n2nc(C(C)C)cc2NC(=O)Nc2ccc(Oc3ccnc(Nc4cc(C(=O)NCCO)ccc4OC)n3)c3ccccc23)cc1 [Example 34, N-(2-hydroxyethyl)-3-((4-((4-(3-(3-isopropyl-1-(4-methoxyphenyl)-1H-pyrazol-5-yl)ureido)naphthalen-1-yl)oxy)pyrimidin-2-yl)amino)-4-methoxybenzamide] | < 1 | +ve (−ve and +ve indicate that the value is below and above respectively, the no significant effect threshold, defined as 30% inhibition at 1 μg/mL at the time point indicated.) | −ve (−ve and +ve indicate that the value is below and above respectively, the no significant effect threshold, defined as 30% inhibition at 1 μg/mL at the time point indicated.) | – |

The next lines start with results.

| IC50 [3] [nM] | Compound | Cell viability at time point in d-U937 cells 4 h [4] | Cell viability at time point in d-U937 cells 24 h [4] | also measured |
| --- | --- | --- | --- | --- |
| 10 | C=C(C)c1cc(NC(=O)Nc2ccc(Oc3ccnc(Nc4cc(OC)cc(C(=O)NCCN5CCOCC5)c4)n3)c3ccccc23)n(-c2ccc(OC)cc2)n1 [Example 86, 3-Methoxy-5-((4-((4-(3-(1-(4-methoxyphenyl)-3-(prop-1-en-2-yl)-1H-pyrazol-5-yl)ureido)naphthalen-1-yl)oxy)pyrimidin-2-yl)amino)-N-(2-morpholinoethyl)-benzamide] | −ve (−ve and +ve indicate that the value is below and above respectively, the no significant effect threshold, defined as 30% inhibition at 1 μg/mL at the time point indicated.) | −ve (−ve and +ve indicate that the value is below and above respectively, the no significant effect threshold, defined as 30% inhibition at 1 μg/mL at the time point indicated.) | β-catenin inductive effect relative to the effect produced by the Reference Compound at 1 μg/mL ([1]; test concentration of 10 μg/mL, found to be negative): less than 15% |
| 26 | COc1cc(C(=O)NCCO)ccc1Nc1nccc(Oc2ccc(NC(=O)Nc3cc(C(C)(C)C)nn3-c3ccc(C)cc3)c3ccccc23)n1 [Example 4, 4-((4-((4-(3-(3-(tert-Butyl)-1-(p-tolyl)-1H-pyrazol-5-yl)ureido)naphthalen-1-yl)oxy)pyrimidin-2-yl)amino)-N-(2-hydroxyethyl)-3-methoxybenzamide] | −ve (−ve and +ve indicate that the value is below and above respectively, the no significant effect threshold, defined as 30% inhibition at 1 μg/mL at the time point indicated.) | −ve (−ve and +ve indicate that the value is below and above respectively, the no significant effect threshold, defined as 30% inhibition at 1 μg/mL at the time point indicated.) | – |
| 12 | Cc1ccc(-n2nc(C(C)(C)C)cc2NC(=O)Nc2ccc(Oc3ccnc(Nc4cccc(C(=O)NCCN(C)C)c4)n3)c3ccccc23)cc1 [Example 18, 3-((4-((4-(3-(3-(tert-butyl)-1-(p-tolyl)-1H-pyrazol-5-yl)ureido)naphthalen-1-yl)oxy)pyrimidin-2-yl)amino)-N-(2-(dimethylamino)ethyl)benzamide] | −ve (−ve and +ve indicate that the value is below and above respectively, the no significant effect threshold, defined as 30% inhibition at 1 μg/mL at the time point indicated.) | −ve (−ve and +ve indicate that the value is below and above respectively, the no significant effect threshold, defined as 30% inhibition at 1 μg/mL at the time point indicated.) | – |
| 13 | COc1cc(Nc2nccc(Oc3ccc(NC(=O)Nc4cc(C(C)(C)C)nn4-c4ccc(C)cc4)c4ccccc34)n2)cc(C(=O)NCCN2CCOCC2)c1 [Example 52, 3-((4-((4-(3-(3-(tert-butyl)-1-(p-tolyl)-1H-pyrazol-5-yl)ureido)naphthalen-1-yl)oxy)pyrimidin-2-yl)amino)-5-methoxy-N-(2-morpholinoethyl)benzamide] | −ve (−ve and +ve indicate that the value is below and above respectively, the no significant effect threshold, defined as 30% inhibition at 1 μg/mL at the time point indicated.) | −ve (−ve and +ve indicate that the value is below and above respectively, the no significant effect threshold, defined as 30% inhibition at 1 μg/mL at the time point indicated.) | – |
| 50 | COc1ccc(-n2nc(C(C)(C)C)cc2NC(=O)Nc2ccc(Oc3ccnc(Nc4cc(OC)cc(C(N)=O)c4)n3)c3ccccc23)cc1 [Example 41, 3-((4-((4-(3-(3-(tert-butyl)-1-(4-methoxyphenyl)-1H-pyrazol-5-yl)ureido)naphthalen-1-yl)oxy)pyrimidin-2-yl)amino)-5-methoxybenzamide] | −ve (−ve and +ve indicate that the value is below and above respectively, the no significant effect threshold, defined as 30% inhibition at 1 μg/mL at the time point indicated.) | −ve (−ve and +ve indicate that the value is below and above respectively, the no significant effect threshold, defined as 30% inhibition at 1 μg/mL at the time point indicated.) | – |
